The numbers were not newly measured in paper PMC10539439 (Pharmacological Reports, 2023), which cites them from elsewhere.

Each structure is given as a SMILES string.

For the data set the following is noted: 5 mg/kg b.w., i.p.; cited from earlier work.

Turning to `N=C(N)N/N=C/c1c(Cl)cccc1Cl` [Guanabenz], the Spontaneous activity result was “↓ [17]”.
